Assay results as given in US10974081B2, “Treatment and prevention of sleep disorders” (Purdue Pharma L.P., priority 2016, dated 2021).
Read-outs that look alike come from different tables or passages of the source.

Assays:
rats [1] = assay: EEG/EMG sleep-wake analysis, single administration compared to zolpidem; type: in vivo, rat
in vivo [2] = settings: male, Crl:CD(SD), rat, po, no-observed-adverse-effect-level (NOAEL)
[3] = Plasma concentration (pharmacokinetics) after single oral dose in humans; type: in vivo, human; settings: for half-life / Tmax / AUC(0-t) / Cmax / AUC(0-inf): male, human, plasma; for half-life / Tmax: po; for AUC(0-inf): read-out: AUCinf Mean
Method: The plasma concentration of Compound (1D) was evaluated in humans for up to 36 hours after administration of a single oral dose of 3, 10, or 30 mg of Compound (1D) in the form of a methyl cellulose suspension. Four healthy male subjects were administered each dose.
FIG. 19A provides a plot of the human plasma concentration of Compound (1D) on a linear scale versus linear time in hours at each dose: 3, 10, and 30 mg. FIG. 19B provides the same results in a plot of human plasma concentration of Compound (1D) on a logarithmic scale versus linear time at each dose. The target plasma exposure indicated in FIG. 19A relates to the effective dose in 80% of subjects from rat modeling results.

[4] = Free unbound compound fraction, equilibrium dialysis of rat serum; type: in vitro ADME; settings: male, Crl:CD (SD), rat, rat serum; 2 μg/mL, 24 hours dialysis at 37° C.
Method: The extent of in vitro binding of Compound (1F) or W-212393 to rat serum was determined as an assessment of the availability of free unbound compound for modulating receptor activity according to a procedure disclosed in, e.g., Example 15 of U.S. Pat. No. 9,290,488, which is hereby incorporated by reference in its entirety. Serum from rats containing a tested compound in one chamber of a dialysis cell was dialyzed with phosphate buffered saline (“PBS”) in the other chamber; thereafter, the supernatant from each chamber was analyzed for the concentration of the tested compound present. […] The final concentration of each tested compound in the serum sample was adjusted to 2 μg/mL by adding an appropriate volume of PBS. A cell suitable for equilibrium dialysis was used in the determinations. A SPECTRA/POR dialysis membrane (with molecular mass cutoff of 12,000-14,000 Da, Spectrum Laboratories, Inc., Rancho Dominguez, Calif.) separated the dialysis cell into two chambers. A 500 μL aliquot of the serum sample containing a tested compound was applied to one chamber (serum chamber) of the dialysis cell. A 500 μL aliquot of PBS was applied to the other chamber (PBS chamber) of the dialysis cell. The dialysis study was conducted in duplicate for each tested compound. After 24 hours of equilibrium dialysis at 37° C., 30 μL of liquid from the serum chamber of the dialysis cell was collected and to this was added 270 μL of fresh PBS (this combination was designated Sample “A”). Then, 270 μL of liquid from the PBS chamber of the dialysis cell was collected and to this was added 30 μL of control rat serum (i.e., rat serum never exposed to any test compound, this combination was designated Sample “B”). […] Each supernatant was analyzed by LC-MS-MS. […] Thereafter, the percentage of free unbound tested compound was calculated from the ratio of the tested compound amount determined from Sample B divided by the sum of the tested compound amounts determined from Sample A and Sample B.

[5] = In vivo bioavailability after oral dosing; settings: male, Sprague-Dawley [Crl:CD(SD)], rat, plasma; 1 mg/kg oral, non-fasted; mean of multiple determinations
in vivo [6] = settings: male, Crl, CD(SD), rat, brain homogenate and plasma, iv, 0.5 mg/kg
rats [7] = settings: by suppression of rhythmic firing of SCN neurons; cited from earlier work

O=C(O)c1nc2ccccc2n([C@H]2C[C@H]3CCC[C@@H](C2)N3C2CC3CCCC(C3)C2)c1=O (some centres unmarked) [Compound (1D)]
effect on percentage of time spent in REM sleep (rats [1]; 10 mg/kg oral (FIG. 13B)): no significant effects
percentage of time spent in wakefulness versus vehicle (rats [1]; 10 mg/kg oral, 1 hour blocks at 2, 5, and 8 hours after dosing (FIG. 13A)): lower
percentage amounts of wakefulness, REM sleep, and NREM sleep (rats [1]; 10 mg/kg oral, 3 hour blocks (FIGS. 14A-14C)): no significant changes
percentage of time spent in NREM sleep versus vehicle (rats [1]; 10 mg/kg oral, at 2, 5, and 8 hours after dosing (FIG. 13C)): higher
percentage of time spent in wakefulness versus vehicle (rats [1]; 10 mg/kg oral, at 6 and 15 hours after dosing (FIG. 13A)): significantly increased
percentage of time spent in NREM sleep versus vehicle (rats [1]; 10 mg/kg oral, at 6 and 15 hours after dosing (FIG. 13C)): significantly decreased
effect on percentage of time spent in REM sleep (rats [1]; 100 mg/kg oral (FIG. 15B, 16B)): no significant effects
percentage amount of NREM sleep versus vehicle (rats [1]; 100 mg/kg oral, 3 hour blocks 0-3, 3-6, 6-9, and 15-18 hours (FIG. 16C)): significant decreases
percentage amount of wakefulness versus vehicle (rats [1]; 100 mg/kg oral, 3 hour blocks 0-3, 3-6, and 15-18 hours (FIG. 16A)): significant increases
percentage of time spent in NREM sleep versus vehicle (rats [1]; 100 mg/kg oral, at 3, 4, 5, 7, 17 and 18 hours after dosing (FIG. 15C)): significantly increased
percentage of time spent in wakefulness versus vehicle (rats [1]; 100 mg/kg oral, at 3, 5 and 17 hours after dosing (FIG. 15A)): significantly decreased
overall sleep effect (rats [1]; single 10 mg/kg oral dose): minor sleep-enhancing effects
overall sleep effect (rats [1]; single 100 mg/kg oral dose): significant sleep-enhancing effects
NOAEL (in vivo [2]): 600 mg/kg
AUCinf Maximum ([3]; 3 mg single oral dose): 176 ng·h/mL
AUCinf Minimum ([3]; 3 mg single oral dose): 144 ng·h/mL
AUCt Maximum ([3]; 3 mg single oral dose): 168 ng·h/mL
AUCt Minimum ([3]; 3 mg single oral dose): 135 ng·h/mL
Cmax Maximum ([3]; 3 mg single oral dose): 34 ng/mL
Cmax Minimum ([3]; 3 mg single oral dose): 23 ng/mL
t1/2 Minimum ([3]; 3 mg single oral dose): 2.1 h
tmax Maximum ([3]; 3 mg single oral dose): 2.0 h
AUCinf Maximum ([3]; 10 mg single oral dose): 557 ng·h/mL
AUCinf Minimum ([3]; 10 mg single oral dose): 320 ng·h/mL
AUCt Maximum ([3]; 10 mg single oral dose): 550 ng·h/mL
AUCt Minimum ([3]; 10 mg single oral dose): 300 ng·h/mL
Cmax Maximum ([3]; 10 mg single oral dose): 98 ng/mL
Cmax Minimum ([3]; 10 mg single oral dose): 56 ng/mL
t1/2 Maximum ([3]; 10 mg single oral dose): 3.0 h
t1/2 Minimum ([3]; 10 mg single oral dose): 2.4 h
tmax Maximum ([3]; 10 mg single oral dose): 2.0 h
tmax Minimum ([3]; 10 mg single oral dose): 1.0 h
AUCinf Maximum ([3]; 30 mg single oral dose): 714 ng·h/mL
AUCinf Minimum ([3]; 30 mg single oral dose): 398 ng·h/mL
AUCt Maximum ([3]; 30 mg single oral dose): 708 ng·h/mL
AUCt Minimum ([3]; 30 mg single oral dose): 388 ng·h/mL
Cmax Maximum ([3]; 30 mg single oral dose): 106 ng/mL
Cmax Minimum ([3]; 30 mg single oral dose): 69 ng/mL
t1/2 Maximum ([3]; 30 mg single oral dose): 3.2 h
tmax Maximum ([3]; 30 mg single oral dose): 3.0 h
tmax Minimum ([3]; 30 mg single oral dose): 1.0 h
gastrointestinal absorption ([3]; across the three doses): rapid gastrointestinal absorption
half-life ([3]; 3 mg, 3 mg single oral dose, read-out: t1/2 Mean (converted)): 2.3 h
Tmax ([3]; 3 mg, 3 mg single oral dose, read-out: tmax Mean): 1.6 h
Tmax ([3]; 3 mg, 3 mg single oral dose, read-out: tmax Median): 1.5 h
half-life ([3]; 10 mg, 10 mg single oral dose, read-out: t1/2 Mean (converted)): 2.6 h
Tmax ([3]; 10 mg, 10 mg single oral dose, read-out: tmax Mean): 1.5 h
half-life ([3]; 30 mg, 30 mg single oral dose, read-out: t1/2 Mean (converted)): 2.8 h
Tmax ([3]; 30 mg, 30 mg single oral dose, read-out: tmax Mean): 1.8 h
Tmax ([3]; 30 mg, 30 mg single oral dose, read-out: tmax Median): 1.5 h
half-life ([3]; 30 mg, 3, 10 and 30 mg single oral doses, read-out: t1/2, minimum to maximum across the three doses): 2.1 to 3.2 h
Tmax ([3]; 30 mg, 3, 10 and 30 mg single oral doses, read-out: tmax, minimum to maximum across the three doses): 1 to 3 h
AUC(0-t) ([3]; 3 mg single oral dose): 154 ng·h/mL
Cmax ([3]; 3 mg single oral dose): 30 ng/mL
AUC(0-inf) ([3]; 3 mg single oral dose): 161 ng·h/mL
AUC(0-t) ([3]; 10 mg single oral dose): 438 ng·h/mL
Cmax ([3]; 10 mg single oral dose): 77 ng/mL
AUC(0-inf) ([3]; 10 mg single oral dose): 447 ng·h/mL
AUC(0-t) ([3]; 30 mg single oral dose): 505 ng·h/mL
Cmax ([3]; 30 mg single oral dose): 83 ng/mL
AUC(0-inf) ([3]; 30 mg single oral dose): 512 ng·h/mL

CNC(=O)Cn1c(=O)n(C2CCN([C@@H]3Cc4cccc5cccc3c45)CC2)c2ccccc21 [Compound W-212393]
fraction unbound at 24 h, 2 μg/mL [4]: < 0.001
bioavailability [5]: 2.1%
Kp at 0.5 h (in vivo [6]): 0.5
effect on circadian body temperature rhythm (rats [7]): induced a phase advance
